As a reminder, the IC50 is the point on the concentration scale where inhibition reaches its midpoint.

The target of one assay is CDK2/CycA2 (Homo sapiens, UniProt P24941). The experiment in a line: CDK2 mobility shift assay (enzymatic activity of CDK2/CycA2). The note with it: 1.25 nM CDK2/CycA2, 37 μM ATP, FL Peptide 18, 120 min at room temperature; read-out: CDK2 IC50. The class given is biochemical. Put shortly:
(§1)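 Phosphorylation of 1.5 μM fluorescent peptide was read by microfluidic mobility shift and fitted to IC50 (4-parameter), normalized to no-compound and no-enzyme controls. CDK5/p25 ran at 0.154 nM with […] ATP for 60 min, using peptide 29. CDK2/CycA2 ran at 1.25 nM with 37 μM ATP for 120 min, using peptide 18. Both included a 30-min compound preincubation in pH 7.5 buffer.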

For another assay, the target named is CDK5/p25 (Homo sapiens, UniProt Q00535). Nature of the assay: CDK5 mobility shift assay (enzymatic activity of CDK5/p25). The class given is biochemical. The note with it: for IC50: 0.154 nM CDK5/p25, FL peptide 29, 60 min at room temperature, read-out: CDK5 IC50; for CDK5/CDK2 specificity: fold more active against CDK5 than CDK2. The essentials: as §1
CDK5/p25, sequence (Q00535 whole entry): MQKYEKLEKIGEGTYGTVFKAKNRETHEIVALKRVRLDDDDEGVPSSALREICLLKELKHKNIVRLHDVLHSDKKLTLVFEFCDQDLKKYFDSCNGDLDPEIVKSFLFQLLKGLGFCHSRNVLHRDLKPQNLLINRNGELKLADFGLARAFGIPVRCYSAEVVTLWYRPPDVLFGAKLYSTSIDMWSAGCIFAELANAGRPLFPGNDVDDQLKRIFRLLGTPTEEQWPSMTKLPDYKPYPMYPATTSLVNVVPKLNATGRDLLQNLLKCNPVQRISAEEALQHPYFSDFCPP
CDK5/p25, sequence (Q15078 99-307 partner limits assumed): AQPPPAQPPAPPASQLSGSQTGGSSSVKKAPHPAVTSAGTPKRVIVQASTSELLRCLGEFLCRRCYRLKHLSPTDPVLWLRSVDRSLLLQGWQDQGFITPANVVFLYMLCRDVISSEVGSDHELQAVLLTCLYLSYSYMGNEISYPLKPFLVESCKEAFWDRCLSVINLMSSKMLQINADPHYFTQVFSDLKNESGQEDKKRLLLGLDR

Regarding `CN1CCC(S(=O)(=O)c2ccc3cnc(Nc4ccc(Cn5cncn5)cc4)cc3n2)CC1` [Compound 263], the IC50 at CDK2/CycA2 lay in the range of 10 to 100 nM. In addition, at CDK5/p25, the IC50 was below 10 nM; the CDK5/CDK2 specificity result is “++ (greater than 10-fold and less than or equal to 100-fold more active against CDK5 than CDK2)”.
As for `CN1CCC(S(=O)(=O)c2ccc3cnc(Nc4ccc(N5CCOCC5)cc4)cc3n2)CC1` [Compound 262], the IC50 at CDK2/CycA2 lay within 10 to 100 nM. In addition, at CDK5/p25, the IC50 was below 10 nM; the CDK5/CDK2 specificity result was “++ (greater than 10-fold and less than or equal to 100-fold more active against CDK5 than CDK2)”.
On to `O=S(=O)(c1ccc2cnc(Nc3ccc(-n4cccn4)cc3F)cc2n1)C1CCN(CC2COC2)CC1` [Compound 332], for which the IC50 at CDK2/CycA2 is 100 to 1000 nM. On CDK5/p25, the IC50 is below 10 nM and the CDK5/CDK2 specificity result was “+++ (greater than 100-fold more active against CDK5 than CDK2)”.
On to `COc1cncc(Nc2cc3nc(S(=O)(=O)C4CCN(C)CC4)ccc3cn2)c1` [Compound 267], for which the IC50 at CDK2/CycA2 was in the range of 100 to 1000 nM; at CDK5/p25, 10 to 100 nM. For the same compound, the CDK5/CDK2 specificity result at CDK5/p25 was “++ (greater than 10-fold and less than or equal to 100-fold more active against CDK5 than CDK2)”.
`CN1CCC(S(=O)(=O)c2ccc3cnc(Nc4cccc(CN5CCOCC5)c4)cc3n2)CC1` [Compound 276]: the IC50 was 100 to 1000 nM at CDK2/CycA2 and below 10 nM on CDK5/p25. Also, on CDK5/p25, the CDK5/CDK2 specificity result was “++ (greater than 10-fold and less than or equal to 100-fold more active against CDK5 than CDK2)”.
On to `CC(c1ccc2cnc(Nc3ccc(-n4ccc(C(=O)O)n4)cc3F)cc2n1)C1CCN(C)CC1` (stereo not drawn) [Compound 324], for which the IC50 on CDK2/CycA2 was above 1000 nM. Besides, on CDK5/p25, the IC50 lay in the range of 10 to 100 nM and the CDK5/CDK2 specificity result is reported as “+++ (greater than 100-fold more active against CDK5 than CDK2)”.
In the same order, the values of `CN1CCC(S(=O)(=O)c2ccc3cnc(Nc4ccc(N(C)C)cc4)cc3n2)CC1` [Compound 306] are 10 to 100 nM, below 10 nM and “+++ (greater than 100-fold more active against CDK5 than CDK2)”.
For the compound `CN1CCC(C(C)(O)c2ccc3cnc(Nc4ccc(-c5ccc(C#N)cc5)cc4F)cc3n2)CC1` (stereo not drawn) [Compound 358], at CDK2/CycA2, the IC50 fell in the range of 10 to 100 nM. Also, on CDK5/p25, the IC50 is below 10 nM; the CDK5/CDK2 specificity entry was “++ (greater than 10-fold and less than or equal to 100-fold more active against CDK5 than CDK2)”.
In the case of `Fc1cc(-n2cccn2)ccc1Nc1cc2nc(C(F)(F)C3CCNCC3)ccc2cn1` [Compound 169, 2-[difluoro(piperidin-4-yl)methyl]-N-[2-fluoro-4-(pyrazol-1-yl)phenyl]-1,6-naphthyridin-7-amine], at CDK2/CycA2, the IC50 was in the range of 10 to 100 nM. Further, on CDK5/p25, the IC50 is below 10 nM; the CDK5/CDK2 specificity entry was “++ (greater than 10-fold and less than or equal to 100-fold more active against CDK5 than CDK2)”.
With `CCN1CCC(N(CC(=O)O)c2ccc3cnc(Nc4ccc(-n5ccc(CO)n5)cc4F)cc3n2)CC1` [Compound 144, [(1-ethylpiperidin-4-yl)[7-([2-fluoro-4-[3-(hydroxymethyl)pyrazol-1-yl]phenyl]amino)-1,6-naphthyridin-2-yl]amino]acetic acid], the IC50 on CDK2/CycA2 is 100 to 1000 nM. At CDK5/p25, the IC50 was below 10 nM and the CDK5/CDK2 specificity result is “+++ (greater than 100-fold more active against CDK5 than CDK2)”.
The corresponding values for `C=C(c1ccc2cnc(Nc3ccc(-n4ccc(CO)n4)cc3F)cc2n1)C1CCN(C)CC1` [Compound 168, [1-[3-fluoro-4-([2-[1-(1-methylpiperidin-4-yl)ethenyl]-1,6-naphthyridin-7-yl]amino)phenyl]pyrazol-3-yl]methanol] are 100 to 1000 nM, below 10 nM and “+++ (greater than 100-fold more active against CDK5 than CDK2)”.

These data come from patent US20220389009A1, “SUBSTITUTED 1,6-NAPHTHYRIDINE INHIBITORS OF CDK5” (Goldfinch Bio, Inc., priority 2019, published 2022).
